In PubChem BioAssay (NCI) one finds TGI and GI50 data, which are given here for 14 compounds.

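In this assay, cells in 96-well plates receive the compound at five concentrations for 48 hours. Endpoints are linearly interpolated between the surrounding concentrations. GI50 = concentration required for 50% inhibition of growth. TGI: concentration producing complete growth inhibition.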

Some test systems named below: OVCAR-8 ovarian; 786-0 renal; HCT-15 colon; A549 NSCLC; HCC-2998 colon; OVCAR-3 ovarian; SW-620 colon; HOP-92 NSCLC; UO-31 renal.
What all share (experiment): NCI anticancer screen, dose series, 48 h

On to `CC1CCC(C(C)C)C(O[C@@H]2OC(=O)C[C@@H]2Sc2ccccc2)C1` (some centres undefined), for which the TGI in the test on OVCAR-8 ovarian was found to be 45.3 µM; in the test on 786-0 renal, 45.9 µM; with HCT-15 colon it was 59.5 µM; in the test with A549 NSCLC, 85.9 µM; in the test on HCC-2998 colon it was 55.9 µM; in the test on OVCAR-3 ovarian it was 28.8 µM. Also, in the test on SW-620 colon, the TGI was 39.2 µM.
For `O=C1c2ccccc2CC1C1(O)C(=O)Nc2ccccc21` (centres undefined), the TGI in the test with OVCAR-8 ovarian, in the test with 786-0 renal, in the test with HCT-15 colon, with A549 NSCLC, in the test on HOP-92 NSCLC and with OVCAR-3 ovarian was greater than 100 µM each time. Also, the TGI in the test on SW-620 colon and in the test with UO-31 renal was greater than 100 µM in each case.
`CCOC(=O)c1nc(-c2ccccc2)oc1OCC`: the TGI in the test on OVCAR-8 ovarian, in the test with 786-0 renal, in the test on A549 NSCLC, in the test on HCC-2998 colon, with OVCAR-3 ovarian and in the test with SW-620 colon was greater than 100 µM throughout.
For the compound `N.N.NCCCCCCN.O=C([O-])CC(=O)[O-].O=C([O-])CC(=O)[O-].[Pt+4].[Pt+4]`, the GI50 was greater than 100 µM in the test on OVCAR-8 ovarian; 65.7 µM with 786-0 renal; greater than 66.1 µM in the test with HCT-15 colon; greater than 100 µM in the test on A549 NSCLC; greater than 100 µM with HCC-2998 colon; greater than 100 µM in the test on HOP-92 NSCLC. Also, the figures for the GI50 in the test on OVCAR-3 ovarian, with SW-620 colon and in the test on UO-31 renal were greater than 89.7 µM, greater than 38 µM and greater than 100 µM, respectively. Also, the TGI with OVCAR-8 ovarian, in the test with 786-0 renal, in the test on HCT-15 colon, with A549 NSCLC, in the test with HCC-2998 colon and with HOP-92 NSCLC was greater than 100 µM each time. Also, the TGI with OVCAR-3 ovarian is greater than 100 µM; with SW-620 colon it was greater than 58.7 µM; in the test with UO-31 renal it was greater than 100 µM.
Regarding `COc1cc(/C=C/C(=O)c2sc(NNC(C)=O)nc2C)ccc1O`, the TGI with OVCAR-8 ovarian, with 786-0 renal, in the test with HCT-15 colon, in the test on A549 NSCLC, with HCC-2998 colon and with HOP-92 NSCLC was greater than 100 µM throughout. The TGI with OVCAR-3 ovarian, with SW-620 colon and in the test on UO-31 renal was greater than 100 µM in each case.
With `C[C@@H](NC1CCC[C@H]1O)c1ccccc1` (some centres undefined), the TGI in the test with OVCAR-8 ovarian, in the test on 786-0 renal, in the test with HCT-15 colon, in the test with A549 NSCLC, in the test with HCC-2998 colon and in the test on HOP-92 NSCLC was greater than 100 µM each time. In addition, the TGI in the test on OVCAR-3 ovarian, with SW-620 colon and with UO-31 renal was greater than 100 µM each time.
As for `CS/C(=N\c1nccs1)NC(=O)c1cccc(Cl)c1`, the TGI with OVCAR-8 ovarian, in the test with 786-0 renal, with HCT-15 colon, in the test with A549 NSCLC, with HCC-2998 colon and in the test on HOP-92 NSCLC was greater than 100 µM in each case. Further, the TGI in the test on OVCAR-3 ovarian, in the test on SW-620 colon and in the test with UO-31 renal was greater than 100 µM in each case.
`COC(=O)C1=C(O)c2cc3c(cc2[C@H](c2cc(OC)c(OC)c(OC)c2)C1C(=O)OC)OCO3` (some centres undefined): the TGI in the test with OVCAR-8 ovarian, in the test with 786-0 renal, with HCT-15 colon, with A549 NSCLC, in the test with HCC-2998 colon and in the test on HOP-92 NSCLC was greater than 100 µM in each case. Further, the TGI was 92.4 µM with OVCAR-3 ovarian, greater than 100 µM in the test on SW-620 colon and greater than 100 µM in the test on UO-31 renal.
For `O=C1CCC2(c3ccccc3)Nc3ncccc3N12` (centres undefined), the TGI in the test on OVCAR-8 ovarian, in the test on 786-0 renal, with HCT-15 colon, in the test with A549 NSCLC, with HCC-2998 colon and with HOP-92 NSCLC was greater than 100 µM each time. The TGI in the test on OVCAR-3 ovarian, with SW-620 colon and in the test on UO-31 renal was greater than 100 µM in each case.
Take `COC(=O)c1cc(-c2cccn2C)c2c(c1C(=O)OC)c1ccccc1n2C`: the TGI in the test on OVCAR-8 ovarian, in the test on 786-0 renal, in the test with HCT-15 colon, in the test with A549 NSCLC, with HCC-2998 colon and in the test on HOP-92 NSCLC was greater than 100 µM each time. Moreover, the TGI with OVCAR-3 ovarian, in the test with SW-620 colon and with UO-31 renal was greater than 100 µM throughout.
For `O=c1cc(N=Nc2ccc(O)cc2)[nH]c(=O)[nH]1`, the TGI in the test with OVCAR-8 ovarian, with 786-0 renal, with HCT-15 colon, in the test on A549 NSCLC, with HCC-2998 colon and in the test on HOP-92 NSCLC was greater than 100 µM each time. Moreover, the TGI in the test on OVCAR-3 ovarian, in the test on SW-620 colon and with UO-31 renal was greater than 100 µM in each case.
As to `CC#CC1C(OC(=O)c2ccccc2)CCCC1(CI)N=[N+]=[N-]` (centres undefined), the TGI with OVCAR-8 ovarian, in the test on 786-0 renal, with HCT-15 colon, with A549 NSCLC, with HCC-2998 colon and in the test with HOP-92 NSCLC was greater than 100 µM throughout. The TGI in the test with OVCAR-3 ovarian, in the test with SW-620 colon and with UO-31 renal was greater than 100 µM throughout.
With `O=C1NC2C=CN(Cc3ccccc3)C=C2C(=O)N2CCCC12` (centres undefined), the TGI in the test on OVCAR-8 ovarian, in the test with 786-0 renal, in the test with HCT-15 colon, in the test with A549 NSCLC, in the test on HCC-2998 colon and in the test with HOP-92 NSCLC was greater than 100 µM in each case. Further, the TGI in the test with OVCAR-3 ovarian, in the test on SW-620 colon and in the test with UO-31 renal was greater than 100 µM each time.
As for `N#Cc1cc([N+](=O)[O-])ccc1NC(=O)/C(=N/N)C(C(=O)c1ccc(Cl)c(Cl)c1)C1OC(=O)c2ccccc21` (centres undefined), the TGI in the test with OVCAR-8 ovarian is greater than 100 µM; in the test on 786-0 renal it was greater than 100 µM; with HCT-15 colon, greater than 100 µM; with A549 NSCLC, greater than 100 µM; with HCC-2998 colon, greater than 100 µM; with HOP-92 NSCLC, 60 µM. Besides, the TGI in the test on OVCAR-3 ovarian, in the test with SW-620 colon and with UO-31 renal was greater than 100 µM each time.
